{
  "source": "patent US20160279269A1",
  "about": "“METHOD AND REAGENT FOR PREPARING A DIAGNOSTIC COMPOSITION” (GE HEALTHCARE AS, priority 2013, published 2016)",
  "assay": "Measured osmolality of ioforminol injection solution, including on dilution and after autoclaving",
  "assay_type": "physicochemical",
  "protocol": "Isotonicity—A solution is isotonic with human blood plasma if no net water migration takes place over the blood cell membranes after mixing the solution with human blood. This means that the measured osmolality of the solution is equal to that of human blood plasma (approx. 290 mOsmol/kg water). This is the goal for any parenteral drug formulation, being more important if injection volumes are relatively large (typically >10 ml) and if injection rate is fast.\nIoforminol 320 mg I/ml injection contains […]. With a molar weight of 1522,13 Dalton, this would be 420.3 mM. This concentrated solution contains 699 g water per litre. Density is 1.357 kg/litre, thus the weight of one litre Ioforminol 320 mg I/ml injection is 1.357 kg. Water is therefore only about half of the weight. Theoretical estimation of osmolality would be 601.5 mOsmol/kg water given 420.3 mM ioforminol, no dissociation under dissolution and 699 g water as solvent.\nKnowing that blood plasma osmolality is approx. 290 mOsmol/kg water, such a solution would be hypertonic by a factor 2 even without other components/solutes. Yet measured osmolality of the complete formulation of ioforminol 320 mg I/ml was around 290 mOsmol/kg water. When one subtracts the contribution to osmolality of the other components in the formulation (Tris, EDTA, NaCl and CaCl2), the net contribution of ioforminol was around 129 mOsmol/kg, not around 600 mOsmol/kg. This is approximately 22% of the expected theoretical osmolality if every ioforminol molecule would act as one hydrated particle.\nThis can be attributed to the very high concentration of ioforminol in the 320 mg I/ml solution. […] However, the percentage only increases to approximately 36% when the concentrated ioforminol composition was diluted more than fourfold. The result of this phenomenon is the linear correlation between ioforminol concentration, salt concentration and osmolality in the interval 70-330 mg I/ml Ioforminol.",
  "data": [
    {"smiles": "O=CN(CC(O)CN(C=O)c1c(I)c(C(=O)NCC(O)CO)c(I)c(C(=O)NCC(O)CO)c1I)c1c(I)c(C(=O)NCC(O)CO)c(I)c(C(=O)NCC(O)CO)c1I", "note": "(centres unmarked) [ioforminol, 5-[formyl-[3-[formyl-[3,5-bis(2,3-dihydroxypropylcarbamoyl)-2,4,6-triiodophenyl]amino]-2-hydroxypropyl]amino]-N,N′-bis(2,3-dihydroxypropyl)-2,4,6-triiodobenzene-1,3-dicarboxamide]", "values": [
      {"measurement": "net contribution of ioforminol to osmolality", "setting": "320 mg I/ml, contribution of Tris, EDTA, NaCl and CaCl2 subtracted", "result": "around 129 mOsmol/kg"},
      {"measurement": "percentage of the expected theoretical osmolality", "setting": "320 mg I/ml, theoretical = every ioforminol molecule acts as one hydrated particle", "result": "approximately 22%"},
      {"measurement": "percentage contribution to osmolality after autoclaving", "setting": "121° C. for approximately 15 minutes", "result": "does not change"},
      {"measurement": "percentage of the expected theoretical osmolality", "setting": "after more than fourfold dilution from 320 to 70 mg I/ml", "result": "approximately 36%"},
      {"measurement": "osmolality compared to theoretical value", "setting": "aqueous solution, theoretical = one molecule acts as one hydrated particle", "result": "lower"}
    ]}
  ]
}
